Experimental data as given in patent publication US8741911B2, “Raf inhibitor compounds” (Eli Lilly and Company, priority 2012, dated 2014).
Like-named read-outs stand apart in the source and are kept apart here.

Key:
Colo205 cells = experiment: CellTiter-Blue Colo-205 cell proliferation assay; assay type: cell-based; details: Homo sapiens; Colo-205, CellTiter-Blue; read-out: Cell Proliferation Inhibition IC50
Procedure: Colo205 cells (catalog #HB-8307) are obtained from the American Type Culture Collection (ATCC, Manassas, Va.). Briefly, cells are grown in RPMI 1640 supplemented with 10% characterized fetal bovine serum (Invitrogen, Carlsbad, Calif.), 1 mM sodium pyruvate, and 1% Penicillin/Streptomycin/L-Glutamine at 37 degrees Celsius, 5% CO2, and 95% humidity. Cells are allowed to expand until reaching 30-60% confluency at which point they are subcultured or harvested for assay use. A serial dilution of test compound is dispensed into a 384-well black clear bottom plate in triplicate. One thousand two-hundred fifty cells are added per well in 50 μL complete growth medium in the 384-well plate. Plates are incubated for 67 hours at 37 degrees Celsius, 5% CO2, and 95% humidity. At the end of the incubation period, 10 μL of a 440 μM solution of resazurin (Sigma, St. Louis, Mo.) in PBS is added to each well of the plate and plates are incubated for an additional 5 hours at 37 degrees Celsius, 5% CO2, and 95% humidity. Plates are read on a Synergy2 reader (Biotek, Winooski, Vt.) using an excitation of 540 nm and an emission of 600 nm. Data is analyzed using Prism software (Graphpad, San Diego, Calif.) to calculate IC50 values.
The A375, HT-29, and Colo-205 cells (ATCC) harbor a V600E mutation.

HepG2 = experiment: CellTiter-Glo proliferation and viability assay; assay type: cell-based; details: Homo sapiens
LOVO = experiment: CellTiter-Glo proliferation and viability assay; assay type: cell-based; details: Homo sapiens
KATOIII = experiment: CellTiter-Glo proliferation and viability assay; assay type: cell-based; details: Homo sapiens, KATO III
BxPC-3 = experiment: CellTiter-Glo proliferation and viability assay; assay type: cell-based; details: Homo sapiens
DMS-53 = experiment: CellTiter-Glo proliferation and viability assay; assay type: cell-based; details: Homo sapiens, read-out: Abs IC50
NCI-H1299 = experiment: CellTiter-Glo proliferation and viability assay; assay type: cell-based; details: Homo sapiens
HT-1080 = experiment: CellTiter-Glo proliferation and viability assay; assay type: cell-based; details: Homo sapiens
C8166 = experiment: CellTiter-Glo proliferation and viability assay; assay type: cell-based; details: Homo sapiens
MIA-PaCa-2 = experiment: CellTiter-Glo proliferation and viability assay; assay type: cell-based; details: Homo sapiens, read-out: Abs IC50
CCRF-CEM = experiment: CellTiter-Glo proliferation and viability assay; assay type: cell-based; details: Homo sapiens, read-out: Abs IC50
huH-1 = experiment: CellTiter-Glo proliferation and viability assay; assay type: cell-based; details: Homo sapiens
NOMO-1 = experiment: CellTiter-Glo proliferation and viability assay; assay type: cell-based; details: Homo sapiens, read-out: Abs IC50
SW620 = experiment: CellTiter-Glo proliferation and viability assay; assay type: cell-based; details: Homo sapiens
Caki-1 = experiment: CellTiter-Glo proliferation and viability assay; assay type: cell-based; details: Homo sapiens
A549 = experiment: CellTiter-Glo proliferation and viability assay; assay type: cell-based; details: Homo sapiens
DU-145 = experiment: CellTiter-Glo proliferation and viability assay; assay type: cell-based; details: Homo sapiens
U-118-MG = experiment: CellTiter-Glo proliferation and viability assay; assay type: cell-based; details: Homo sapiens
MKN45 = experiment: CellTiter-Glo proliferation and viability assay; assay type: cell-based; details: Homo sapiens
NCI-H1436 = experiment: CellTiter-Glo proliferation and viability assay; assay type: cell-based; details: Homo sapiens
CaOV-3 = experiment: CellTiter-Glo proliferation and viability assay; assay type: cell-based; details: Homo sapiens
BT-474 = experiment: CellTiter-Glo proliferation and viability assay; assay type: cell-based; details: Homo sapiens
EB2 = experiment: CellTiter-Glo proliferation and viability assay; assay type: cell-based; details: Homo sapiens
HCC70 = experiment: CellTiter-Glo proliferation and viability assay; assay type: cell-based; details: Homo sapiens
MOLT-4 = experiment: CellTiter-Glo proliferation and viability assay; assay type: cell-based; details: Homo sapiens
NCI-H2126 = experiment: CellTiter-Glo proliferation and viability assay; assay type: cell-based; details: Homo sapiens
NCI-H2228 = experiment: CellTiter-Glo proliferation and viability assay; assay type: cell-based; details: Homo sapiens
PLC-PRF-5 = experiment: CellTiter-Glo proliferation and viability assay; assay type: cell-based; details: Homo sapiens
[1] = system: phospho-MEK and phospho-ERK in A375 cells; experiment: Immunoblotting (Western Blot) analysis of phospho-MEK and phospho-ERK; assay type: cell-based, human
Procedure: Testing is carried out at doses of 0, and 11 serial dilutions ranging from 0.17 to 10000 nM. Protein lysates are generated by treatment of the cells with RIPA lysis buffer from Millipore. Western blotting analysis is performed substantially as described in Yadav et al, Molecular Carcinogenesis, 2011, 50: 346-52. Briefly, SDS-PAGE is performed on cell lysates containing 20 ug of total protein using 4-20% Novex® tri-glycine gradient gels (Invitrogen). Protein is transferred onto […] nitrocellulose membranes using NuPAGE® Transfer Buffer (Invitrogen) and 10% methanol at 100 V, 4° C. for 1 hr. Generally, the primary antibody is used at 1:1000 dilution, and secondary antibody at 1:20000 dilution. Proteins are detected using the Odyssey Infrared Imaging System (Li-COR Biosciences). Antibodies against ERK1/2, phospho-ERK1/2, phospho-MEK1/2, and actin are obtained from Cell Signaling Technology.
Phospho-ERK activity was substantially eliminated at 41 nM.

Work on `CNc1ncc2cc(-c3cc(NC(=O)NCCC(C)(C)C)c(F)cc3C)c(C)nc2n1` [Example 1, 1-(3,3-Dimethylbutyl)-3-(2-fluoro-4-methyl-5-(7-methyl-2-(methylamino)pyrido[2,3-d]pyrimidin-6-yl)phenyl)urea] yielded an IC50 (Colo205 cells) of 27 nM, an IC50 (HepG2; read-out: Abs IC50) of 0.06 nM and an IC50 (HepG2; read-out: Rel IC50) of 0.03 nM. For the same molecule, the IC50 (LOVO; read-out: Abs IC50) was 0.19 nM, the IC50 (LOVO; read-out: Rel IC50) was 0.12 nM and the IC50 (KATOIII; read-out: Abs IC50) was 0.33 nM. The IC50 (KATOIII; read-out: Rel IC50) was 0.33 nM, the IC50 (BxPC-3; read-out: Abs IC50) was 0.39 nM and the IC50 (BxPC-3; read-out: Rel IC50) was 0.23 nM. For the same molecule, the IC50 (DMS-53) was 0.6 nM, the IC50 (NCI-H1299; read-out: Abs IC50) was 0.91 nM and the IC50 (NCI-H1299; read-out: Rel IC50) was 0.14 nM. It also gave an IC50 (HT-1080; read-out: Abs IC50) of 0.98 nM, an IC50 (HT-1080; read-out: Rel IC50) of 0.5 nM and an IC50 (C8166; read-out: Abs IC50) of 1.09 nM. It also gave an IC50 (C8166; read-out: Rel IC50) of 0.56 nM, an IC50 (MIA-PaCa-2) of 1.09 nM and an IC50 (CCRF-CEM) of 1.5 nM. It also gave an IC50 (huH-1; read-out: Abs IC50) of 1.99 nM, an IC50 (huH-1; read-out: Rel IC50) of 0.59 nM and an IC50 (NOMO-1) of 2.63 nM. For the same molecule, the IC50 (SW620; SW-620, read-out: Abs IC50) was 2.86 nM, the IC50 (SW620; SW-620, read-out: Rel IC50) was 0.46 nM and the IC50 (Caki-1; read-out: Abs IC50) was 2.91 nM. It also gave an IC50 (Caki-1; read-out: Rel IC50) of 2.03 nM, an IC50 (A549; read-out: Abs IC50) of 4.42 nM and an IC50 (A549; read-out: Rel IC50) of 2.07 nM. For the same molecule, the IC50 (DU-145; read-out: Abs IC50) was 5.18 nM, the IC50 (DU-145; read-out: Rel IC50) was 0.66 nM and the IC50 (U-118-MG; read-out: Abs IC50) was 5.21 nM. The IC50 (U-118-MG; read-out: Rel IC50) was 0.76 nM, the IC50 (MKN45; MKN-45, read-out: Abs IC50) was 5.72 nM and the IC50 (MKN45; MKN-45, read-out: Rel IC50) was 0.87 nM. The IC50 (NCI-H1436; read-out: Abs IC50) was 8.35 nM, the IC50 (NCI-H1436; read-out: Rel IC50) was 12.7 nM and the IC50 (CaOV-3; read-out: Abs IC50) was 9.58 nM. For the same molecule, the IC50 (CaOV-3; read-out: Rel IC50) was 5.32 nM, the IC50 (BT-474; read-out: Abs IC50) was 11.6 nM and the IC50 (BT-474; read-out: Rel IC50) was 10.9 nM. For the same molecule, the IC50 (EB2; read-out: Abs IC50) was > 20 nM, the IC50 (EB2; read-out: Rel IC50) was 0.5 nM and the IC50 (HCC70; read-out: Abs IC50) was > 20 nM. The IC50 (HCC70; read-out: Rel IC50) was > 20 nM, the IC50 (MOLT-4; read-out: Abs IC50) was > 20 nM and the IC50 (MOLT-4; read-out: Rel IC50) was 1.21 nM. For the same molecule, the IC50 (NCI-H2126; read-out: Abs IC50) was > 20 nM, the IC50 (NCI-H2126; read-out: Rel IC50) was > 20 nM and the IC50 (NCI-H2228; read-out: Abs IC50) was > 20 nM. For the same molecule, the IC50 (NCI-H2228; read-out: Rel IC50) was 1.18 nM, the IC50 (PLC-PRF-5; read-out: Abs IC50) was > 20 nM and the IC50 (PLC-PRF-5; read-out: Rel IC50) was 11.7 nM. The “concentration at which phospho-ERK activity was substantially eliminated” value [1] was 41 nM and the “phospho-MEK and phospho-ERK activities” value [1] was “inhibited phospho-MEK and phospho-ERK activities”.
